Data reported in patent publication US20020137929A1, “1 - (3-heterocyclylphenyl) isothiourea, -isourea, -guanidine and -amidine herbicidal agents” (Intellectual Property Department, BASF Aktiengesellschaft, priority 1998, published 2002).

Assays:
[1] = system: CYPIR (Rice Flatsedge); test: Preemergence weed control under flooded paddy conditions; format: in vivo, Cyperus iria; conditions: rated 3-4 weeks after treatment
Summary of the method: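 Flooded-pot preemergence screen with silt loam and seeds in the upper 0.5 cm. Dose about 0.0313 to 0.500 kg/ha, delivered into flood water; visual 0-9 score after 3 to 4 weeks.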

[2] = system: SETVI (Foxtail, Green); test: Postemergence herbicidal evaluation; format: in vivo, Setaria viridis; conditions: postemergence
Summary of the method: (§1)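 Compound is applied as a foliar spray to seedlings about two weeks old, formulated in equal parts acetone and water with 0.5% TWEEN 20 and delivered at 40 psi to give about 0.0156–0.500 kg per hectare. Injury is rated visually 0–9 after four to five weeks.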

[3] = system: ZEAMX (Corn, Field); test: Preemergence herbicidal evaluation; format: in vivo, Zea mays; conditions: rated 4-5 weeks after treatment
Summary of the method: (§2)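 In this greenhouse assay, monocot and dicot seeds are planted in soil and treated prior to emergence with an aqueous acetone spray (about 0.0156-0.500 kg/ha). Plants are assessed visually against control on a 0-9 scale after 4-5 weeks.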

[4] = system: ECHCG (Barnyardgrass); test: Postemergence herbicidal evaluation; format: in vivo, Echinochloa crus-galli; conditions: postemergence
Summary of the method: as §1

[5] = system: CYPSE (Flatsedge); test: Preemergence weed control under flooded paddy conditions; format: in vivo, Cyperus serotinus; conditions: rated 3-4 weeks after treatment
Summary of the method: (§3)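 Seeds or propagules sown in top 0.5 cm of silt loam soil, flooded 1.5 to 3 cm above surface throughout. Compound in 50/50 v/v aqueous/acetone pipetted into flood water at about 0.0313 to 0.500 kg/ha. Visual 0-9 rating versus control after three to four weeks in greenhouse.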

[6] = system: GALAP (Galium); test: Preemergence herbicidal evaluation; format: in vivo, Galium aparine; conditions: rated 4-5 weeks after treatment
Summary of the method: as §2

[7] = system: CHEAL (Lambsquarters, Common); test: Postemergence herbicidal evaluation; format: in vivo, Chenopodium album; conditions: postemergence
Summary of the method: as §1

[8] = system: CASOB (Sicklepod); test: Postemergence herbicidal evaluation; format: in vivo, Cassia obtusifolia; conditions: postemergence
Summary of the method: as §1

[9] = system: SAGPY (Arrowhead (Pygmaea)); test: Preemergence weed control under flooded paddy conditions; format: in vivo, Sagittaria pygmaea; conditions: rated 3-4 weeks after treatment
Summary of the method: as §3

[10] = system: AMBEL (Ragweed, Common); test: Postemergence herbicidal evaluation; format: in vivo, Ambrosia artemisifolia; conditions: postemergence
Summary of the method: as §1

[11] = system: ORYSAT (Rice, Tebonnet); test: Postemergence herbicidal evaluation; format: in vivo, Oryza sativa, (L.) Tebonnet; conditions: postemergence
Summary of the method: as §1

[12] = system: GALAP (Galium); test: Postemergence herbicidal evaluation; format: in vivo, Galium aparine; conditions: postemergence
Summary of the method: as §1

[13] = system: CYPSE (Flatsedge); test: Postemergence weed control under flooded paddy conditions; format: in vivo, Cyperus serotinus; conditions: postemergence weeds, rated 3 to 4 weeks after treatment
Summary of the method: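 With weeds 3 to 5 cm tall and rice at the 1.5 to 2.5 leaf stage, containers were flooded and water held 1.5 to 3 cm above soil. Compounds in 50/50 v/v aqueous/acetone went into the flood water at about 0.0313 to 0.500 kg/ha a.i. Effects were visually rated 0–9 against controls after three to four weeks in the greenhouse.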

[14] = system: CASOB (Sicklepod); test: Preemergence herbicidal evaluation; format: in vivo, Cassia obtusifolia; conditions: rated 4-5 weeks after treatment
Summary of the method: as §2

[15] = system: GLXMAW (Soybean, Williams); test: Postemergence herbicidal evaluation; format: in vivo, Glycine max, (L.) Merr. cv Williams; conditions: postemergence
Summary of the method: as §1

## COC(=O)[C@H](Cc1ccccc1)N1C(=O)CS/C1=N/c1cc(-n2c(=O)cc(C(F)(F)F)n(C)c2=O)c(F)cc1Cl [Compound 72, Methyl α-benzyl-2-{{2-chloro-5-[3,6-dihydro-3-methyl-2,6-dioxo-4-(trifluoromethyl)-1(2H)-pyrimidinyl]-4-fluorophenyl]imino}-4-oxo-3-thiazolidineacetate, L-]
[1]; 0.0313 kg/ha
  CYPIR herbicidal effect rating: 6.0
[1]; 0.0625 kg/ha
  CYPIR herbicidal effect rating: 6.0
[1]; 0.1250 kg/ha
  CYPIR herbicidal effect rating: 7.0
[1]; 0.2500 kg/ha
  CYPIR herbicidal effect rating: 9.0
[2]; rate 0.0158 kg/ha
  SETVI herbicidal rating: 2.0
[2]; rate 0.0315 kg/ha
  SETVI herbicidal rating: 4.0
[2]; rate 0.0630 kg/ha
  SETVI herbicidal rating: 2.0
[3]; rate 0.0156 kg/ha
  Preemergence herbicidal rating ZEAMX: 0.0
[3]; rate 0.0313 kg/ha
  Preemergence herbicidal rating ZEAMX: 0.0
[3]; rate 0.0625 kg/ha
  Preemergence herbicidal rating ZEAMX: 0.0
[3]; rate 0.1250 kg/ha
  Preemergence herbicidal rating ZEAMX: 1.0
[3]; rate 0.2500 kg/ha
  Preemergence herbicidal rating ZEAMX: 1.0
[4]; rate 0.0158 kg/ha
  ECHCG herbicidal rating: 1.0
[4]; rate 0.0315 kg/ha
  ECHCG herbicidal rating: 3.0
[4]; rate 0.0630 kg/ha
  ECHCG herbicidal rating: 3.0
[5]; 0.0313 kg/ha
  CYPSE herbicidal effect rating: 0.0
[5]; 0.0625 kg/ha
  CYPSE herbicidal effect rating: 0.0
[5]; 0.1250 kg/ha
  CYPSE herbicidal effect rating: 9.0
[5]; 0.2500 kg/ha
  CYPSE herbicidal effect rating: 9.0
[6]; rate 0.0156 kg/ha
  Preemergence herbicidal rating GALAP: 0.0
[6]; rate 0.0313 kg/ha
  Preemergence herbicidal rating GALAP: 0.0
[6]; rate 0.0625 kg/ha
  Preemergence herbicidal rating GALAP: 0.0
[6]; rate 0.1250 kg/ha
  Preemergence herbicidal rating GALAP: 0.0
[6]; rate 0.2500 kg/ha
  Preemergence herbicidal rating GALAP: 9.0
[7]; rate 0.0158 kg/ha
  CHEAL herbicidal rating: 7.0
[7]; rate 0.0315 kg/ha
  CHEAL herbicidal rating: 9.0
[8]; rate 0.0158 kg/ha
  CASOB herbicidal rating: 8.0
[8]; rate 0.0315 kg/ha
  CASOB herbicidal rating: 6.0
[8]; rate 0.0630 kg/ha
  CASOB herbicidal rating: 7.0
[9]; 0.0313 kg/ha
  SAGPY herbicidal effect rating: 4.0
[9]; 0.0625 kg/ha
  SAGPY herbicidal effect rating: 4.0
[9]; 0.1250 kg/ha
  SAGPY herbicidal effect rating: 4.0
[9]; 0.2500 kg/ha
  SAGPY herbicidal effect rating: 4.0
[10]; rate 0.0158 kg/ha
  AMBEL herbicidal rating: 5.0
[10]; rate 0.0315 kg/ha
  AMBEL herbicidal rating: 9.0
[10]; rate 0.0630 kg/ha
  AMBEL herbicidal rating: 6.0
[11]; rate 0.0158 kg/ha
  ORYSAT herbicidal rating: 3.5
[11]; rate 0.0315 kg/ha
  ORYSAT herbicidal rating: 3.5
[11]; rate 0.0630 kg/ha
  ORYSAT herbicidal rating: 4.5
[12]; rate 0.0158 kg/ha
  GALAP herbicidal rating: 6.0
[12]; rate 0.0315 kg/ha
  GALAP herbicidal rating: 7.0
[12]; rate 0.0630 kg/ha
  GALAP herbicidal rating: 9.0
[13]; Rate 0.0313 kg/ha
  Herbicidal rating CYPSE: 0.0
[13]; Rate 0.0625 kg/ha
  Herbicidal rating CYPSE: 0.0
[13]; Rate 0.1250 kg/ha
  Herbicidal rating CYPSE: 9.0
[13]; Rate 0.2500 kg/ha
  Herbicidal rating CYPSE: 9.0
[14]; rate 0.0156 kg/ha
  Preemergence herbicidal rating CASOB: 0.0
[14]; rate 0.0313 kg/ha
  Preemergence herbicidal rating CASOB: 0.0
[14]; rate 0.0625 kg/ha
  Preemergence herbicidal rating CASOB: 0.0
[14]; rate 0.1250 kg/ha
  Preemergence herbicidal rating CASOB: 1.0
[14]; rate 0.2500 kg/ha
  Preemergence herbicidal rating CASOB: 1.0
[15]; rate 0.0158 kg/ha
  GLXMAW herbicidal rating: 5.5
[15]; rate 0.0315 kg/ha
  GLXMAW herbicidal rating: 5.5
[15]; rate 0.0630 kg/ha
  GLXMAW herbicidal rating: 7.0
